Measured values reported in ChEMBL document CHEMBL4673406, “Discovery and Preclinical Evaluation of BMS-986242, a Potent, Selective Inhibitor of Indoleamine-2,3-dioxygenase 1” (ACS Med Chem Lett, 2021).

Key:
[1] = Metabolic stability in rat hepatocytes assessed as UGT-mediated compound glucuronidation by measuring half life; assay type: ADME, cell-based, Hepatocyte
[2] = Toxicity in rat assessed as effect on cardiovascular system by telemetry; settings: in vivo
[3] = biological target: Indoleamine 2,3-dioxygenase 1 (Homo sapiens, UniProt P14902); assay: Inhibition of IDO1 in IFNgamma-stimulated human HeLa cells preincubated for 2 hrs followed by IFNgamma stimulation and measured after 18 hrs by
Chain of Indoleamine 2,3-dioxygenase 1 (Homo sapiens, UniProt P14902) (P14902 whole entry): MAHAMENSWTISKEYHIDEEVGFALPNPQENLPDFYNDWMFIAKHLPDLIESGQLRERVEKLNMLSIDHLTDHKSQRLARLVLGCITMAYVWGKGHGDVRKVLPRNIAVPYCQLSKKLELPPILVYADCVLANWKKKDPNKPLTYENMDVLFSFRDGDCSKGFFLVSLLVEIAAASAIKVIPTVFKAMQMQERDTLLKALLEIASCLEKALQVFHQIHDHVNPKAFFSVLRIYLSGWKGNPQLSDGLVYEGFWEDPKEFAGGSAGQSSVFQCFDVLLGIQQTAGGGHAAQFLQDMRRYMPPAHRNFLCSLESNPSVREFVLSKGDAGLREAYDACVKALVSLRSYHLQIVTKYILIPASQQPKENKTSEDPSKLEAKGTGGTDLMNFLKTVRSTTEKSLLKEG

[4] = biological target: Neuronal acetylcholine receptor subunit alpha-7 (Homo sapiens, UniProt P36544); assay: Inhibition of alpha7 nAChR (unknown origin)
Chain of Neuronal acetylcholine receptor subunit alpha-7 (P36544 whole entry): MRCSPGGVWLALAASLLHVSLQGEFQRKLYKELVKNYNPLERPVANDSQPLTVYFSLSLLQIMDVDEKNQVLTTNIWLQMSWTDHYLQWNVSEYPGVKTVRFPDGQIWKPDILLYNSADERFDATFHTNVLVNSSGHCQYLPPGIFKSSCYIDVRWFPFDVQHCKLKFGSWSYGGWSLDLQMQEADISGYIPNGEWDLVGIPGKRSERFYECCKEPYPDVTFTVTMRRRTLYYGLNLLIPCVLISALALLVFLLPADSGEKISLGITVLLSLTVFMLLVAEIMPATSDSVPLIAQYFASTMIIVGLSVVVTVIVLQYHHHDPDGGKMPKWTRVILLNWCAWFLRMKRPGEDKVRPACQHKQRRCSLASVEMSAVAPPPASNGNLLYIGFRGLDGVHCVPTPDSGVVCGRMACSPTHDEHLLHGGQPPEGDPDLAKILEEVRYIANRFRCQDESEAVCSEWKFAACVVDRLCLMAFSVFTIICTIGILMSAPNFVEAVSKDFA

[5] = biological target: Indoleamine 2,3-dioxygenase 1 (Mus musculus) (UniProt P28776); assay: In vivo inhibition of IDO1 in nu/nu mouse xenografted with human SK-OV-3 cells assessed as reduction in kynurenine level at 30 mg/kg, po qd by HPLC-MS/MS analysis relative to control; assay type: functional, organism-based
Chain of Indoleamine 2,3-dioxygenase 1 (Mus musculus) (P28776 whole entry, looked up): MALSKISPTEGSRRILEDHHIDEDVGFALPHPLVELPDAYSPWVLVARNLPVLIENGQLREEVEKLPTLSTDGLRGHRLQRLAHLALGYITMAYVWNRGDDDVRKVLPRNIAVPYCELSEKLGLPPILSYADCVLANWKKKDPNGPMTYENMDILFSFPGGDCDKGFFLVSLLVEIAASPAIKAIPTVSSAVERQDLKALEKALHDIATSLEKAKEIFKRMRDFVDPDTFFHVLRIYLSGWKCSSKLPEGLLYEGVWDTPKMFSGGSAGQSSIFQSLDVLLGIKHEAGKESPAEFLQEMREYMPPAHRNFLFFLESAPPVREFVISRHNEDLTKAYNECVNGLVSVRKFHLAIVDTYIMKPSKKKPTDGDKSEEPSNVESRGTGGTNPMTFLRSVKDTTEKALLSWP

[6] = Volume of distribution at steady state in dog at 1 mg/kg, iv; assay type: ADME, organism-based, Canis lupus familiaris; settings: in vivo
CYP450 = CYP450 (Homo sapiens, UniProt P04798+P05177+P05181+P08684+P10632+P10635+P11509+P11712+P13584+P20813+P20815+P20853+P24462+P24903+P33260+P33261+P51589+P78329+P98187+Q02928+Q08477+Q16678+Q16696+Q5TCH4+Q6VVX0+Q7Z449+Q8TAV3+Q96SQ9+Q9HB55); assay: Inhibition of human CYP450; assay type: ADME, protein assay
[7] = biological target: T1, Nuclear receptor subfamily 1 group I member 2 (Homo sapiens, UniProt O75469); assay: Transactivation of PXR (unknown origin); assay type: ADME
T1 sequence (O75469 whole entry): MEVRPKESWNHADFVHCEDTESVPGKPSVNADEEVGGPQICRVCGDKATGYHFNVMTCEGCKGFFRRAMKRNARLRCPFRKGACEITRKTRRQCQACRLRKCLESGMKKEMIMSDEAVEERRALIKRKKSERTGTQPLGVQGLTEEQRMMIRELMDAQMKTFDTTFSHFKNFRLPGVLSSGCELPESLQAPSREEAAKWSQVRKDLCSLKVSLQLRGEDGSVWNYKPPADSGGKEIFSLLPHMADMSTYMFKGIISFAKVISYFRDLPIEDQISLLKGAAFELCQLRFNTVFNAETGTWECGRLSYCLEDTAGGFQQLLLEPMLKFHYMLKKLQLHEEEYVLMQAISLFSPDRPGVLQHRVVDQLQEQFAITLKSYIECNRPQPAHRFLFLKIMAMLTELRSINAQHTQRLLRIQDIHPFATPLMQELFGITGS

[8] = Permeability across apical to basal side in human Caco-2 cells; assay type: ADME, cell-based; settings: read-out: permeability
[9] = AUC (0 to 24 hrs) in nu/nu mouse xenografted with human SK-OV-3 cells measured in tumor at 3 mg/kg, po qd by uHPLC-MS/MS analysis; assay type: ADME, organism-based; set-up: time < 24 hr, route oral, dose 3 mg/kg
[10] = Volume of distribution at steady state in mouse at 0.5 mg/kg, iv; assay type: ADME, organism-based; settings: in vivo
[11] = Oral bioavailability in dog at 5 mg/kg; assay type: ADME, organism-based, Canis lupus familiaris; settings: in vivo
hERG = hERG (Homo sapiens, UniProt Q12809); assay: Inhibition of human ERG at 10 uM by patch clamp method relative to control
Chain of hERG (Q12809 whole entry): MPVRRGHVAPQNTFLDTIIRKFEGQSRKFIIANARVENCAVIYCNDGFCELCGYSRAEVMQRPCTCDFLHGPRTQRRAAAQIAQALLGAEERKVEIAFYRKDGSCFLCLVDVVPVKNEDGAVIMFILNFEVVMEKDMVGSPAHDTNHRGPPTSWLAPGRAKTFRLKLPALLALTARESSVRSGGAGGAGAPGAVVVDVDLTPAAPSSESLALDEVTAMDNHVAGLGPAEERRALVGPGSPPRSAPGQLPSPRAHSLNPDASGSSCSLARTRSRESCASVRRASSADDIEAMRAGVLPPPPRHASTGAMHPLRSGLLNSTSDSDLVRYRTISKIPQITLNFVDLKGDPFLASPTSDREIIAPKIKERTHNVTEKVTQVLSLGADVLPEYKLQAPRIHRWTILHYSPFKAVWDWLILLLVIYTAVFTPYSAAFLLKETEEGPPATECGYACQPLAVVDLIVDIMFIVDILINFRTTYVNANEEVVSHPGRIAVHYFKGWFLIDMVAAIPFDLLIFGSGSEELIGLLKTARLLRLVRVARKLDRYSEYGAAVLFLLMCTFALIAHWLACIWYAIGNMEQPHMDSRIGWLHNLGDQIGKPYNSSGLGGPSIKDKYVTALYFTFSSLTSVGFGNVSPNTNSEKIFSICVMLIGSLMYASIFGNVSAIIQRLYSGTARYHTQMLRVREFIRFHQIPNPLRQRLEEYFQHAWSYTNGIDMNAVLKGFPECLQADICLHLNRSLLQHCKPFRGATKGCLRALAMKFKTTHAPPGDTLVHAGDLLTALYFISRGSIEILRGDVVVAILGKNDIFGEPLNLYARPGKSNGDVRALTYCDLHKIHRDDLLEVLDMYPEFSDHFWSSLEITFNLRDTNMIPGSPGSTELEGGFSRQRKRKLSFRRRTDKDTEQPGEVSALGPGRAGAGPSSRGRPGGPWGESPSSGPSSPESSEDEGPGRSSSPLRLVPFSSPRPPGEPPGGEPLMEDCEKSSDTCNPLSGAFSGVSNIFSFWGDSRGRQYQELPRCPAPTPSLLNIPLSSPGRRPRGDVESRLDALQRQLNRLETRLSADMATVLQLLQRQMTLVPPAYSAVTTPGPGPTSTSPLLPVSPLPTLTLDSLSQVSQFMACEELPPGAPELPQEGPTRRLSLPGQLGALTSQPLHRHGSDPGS

[12] = Metabolic stability in mouse hepatocytes assessed as CYP450-mediated compound metabolism by measuring half life; assay type: ADME, cell-based, Hepatocyte
[13] = AUC in rat at 0.5 mg/kg, iv; assay type: ADME, organism-based; set-up: dose 0.5 mg/kg; settings: in vivo
[14] = biological target: Indoleamine 2,3-dioxygenase 1 (Mus musculus, UniProt P28776); assay: Inhibition of IDO1 in IFNgamma-stimulated mouse M109 cells preincubated for 2 hrs followed by IFNgamma stimulation and measured after 18 hrs by; assay type: cell-based
Chain of Indoleamine 2,3-dioxygenase 1 (Mus musculus, UniProt P28776) (P28776 whole entry): as the sequence (P28776 whole entry, looked up) above

[15] = Half life in rat at 0.5 mg/kg, iv; assay type: ADME, organism-based; settings: in vivo
in vitro = settings: human, liver microsomes
Description: Metabolic stability in human liver microsomes assessed as parent compound remaining at 0.5 uM measured after 10 mins

[16] = Metabolic stability in cynomolgus monkey hepatocytes assessed as CYP450-mediated compound metabolism by measuring half life; assay type: ADME, cell-based, Macaca fascicularis, Hepatocyte
[17] = Metabolic stability in cynomolgus monkey hepatocytes assessed as UGT-mediated compound glucuronidation by measuring half life; assay type: ADME, cell-based, Macaca fascicularis, Hepatocyte

half-life [1]: 93 min | IC50 [3]: 2 nM | IC50 [4]: > 6000 nM | inhibition [5]: 59% | Vdss [6]: 3.87 L/kg | IC50 (CYP450): > 15000 nM | EC50 [7]: > 50000 nM | Papp A→B [8]: 8.8 ×10⁻⁶ cm/s | AUC at 24 h [9]: 9.6 µM·h | Vdss [10]: 17 L/kg | bioavailability [11]: 39% | half-life [12]: 4 min | AUC [13]: 5.6 µM·h | IC50 [14]: 2 nM | t1/2 [15]: 4 min | remaining at 10 min, 0.5 µM (in vitro): 54% | half-life [16]: 2 min | half-life [17]: > 120 min
SMILES: C[C@@H](NC(=O)c1ccc(Cl)cc1)[C@H]1CC[C@@H](c2ccnc3ccc(F)cc32)CC1
Activity [2]: Non-Toxic | inhibition at 10 µM (hERG): 87%
